Measured values taken from PMC7998669, “7-(2-Anilinopyrimidin-4-yl)-1-benzazepin-2-ones Designed by a “Cut and Glue” Strategy Are Dual Aurora A/VEGF-R Kinase Inhibitors” (Molecules, 2021).
≈ marks a conversion by molar mass, not a printed value.

Assays:
VEGF-R2 = biological target: T1, VEGF-R2 (Homo sapiens, UniProt P35968); experiment: radiometric 33PanQinase protein kinase assay; format: biochemical; settings: for IC50: radiometric assay, 1 µM ATP; for remaining activity at 10 µM: 10 µM compound, residual kinase activity
T1 construct: host or cells: Sf9 (baculovirus)
Method: (§1) The inhibitory activity of prototype 2a was determined in a panel of 24 tumor-relevant protein kinases using a radiometric assay. Only the kinases Aurora A, VEGF-R2 and VEGF-R3 were inhibited with single digit micromolar IC50 values (Table 2). Structural modifications were then implemented, particularly directed to improve inhibition of Aurora A. The so-designed congeners with small substituents at the aniline ring 2b–2n were examined for inhibition of Aurora A and of VEGF-R2, VEGF-R3 and Aurora B for comparison (Table 3).
(§2) The screening for protein kinase inhibition was performed with the radiometric ^33Panqinase activity assay at Reaction Biology Europe GmbH (Freiburg) using a robotic system (Beckmann Coulter/SagianRoboter) and 96-well plates (FlashPlates, Perkin/Elmer/NEN, Boston, MA, USA). In brief, the transfer of ^33P-phosphate into the substrate was measured with a microplate scintillation counter (Microbeta Trilux, Wallace). Protein kinases were expressed in Sf9 cells as recombinant glutathione S-transferase (GST) or polyhistidine (His)-tagged proteins in baculovirus. Isolation and purification of expressed kinases were performed with affinity chromatography by using GSH agarose (Sigma) or Ni-NTA agarose (Qiagen). The standard solution for each enzyme contained: 60 mM HEPES-NaOH (pH 7.5), 3 mM MgCl2, 3 µM sodium orthovanadate, 1.2 mM DTT, 50 µg/mL PEG20000 and 1 µM [γ-^33P]-ATP (approximately 5 × 10^5 cpm per well). In chronological order the reaction mixture was prepared: 20 µL standard solution, 5 µL ATP solution in water, 5 µL of the compound in 10% DMSO and 20 µL of enzyme/substrate mixture (50:50). Each kinase contained different substrates in different concentrations: 125 ng/50 µL Poly(Glu, Tyr)4:1 for 20 ng/50 µL IGF1-R, 25 ng/50 µL IGF1-R, 20 ng/50 µL EGF-R, 25 ng/50 µL EGF-R, 40 ng/50 µL EGF-R, 10 ng/50 µL EPHB4, 20 ng/50 µL EPHB4, 200 ng/50 µL ERBB2, 10 ng/50 µL SRC, 100 ng/50 µL FAK, 200 ng/50 µL FAK, 50 ng/50 µL VEGF-R2, 100 ng/50 µL VEGF-R3, 200 ng/50 µLTIE2; 250 ng/50 µL Poly(Glu, Tyr)4:1 for 200 ng/50 µL TIE2; 500 ng/50 µL tetra (LRRWSLG) for 50 ng/50 µL Aurora-A, 25 ng/50 µL PAK4, 25 ng/50 µL PDK1; 250 ng/50 µL tetra (LRRWSLG) for 50 ng/50 µL Aurora-B, 200 ng/50 µL Aurora-B; 125 ng/50 µL Histon H1 for 100 ng/50 µL CDK2/CycA; 250 ng/50 µL Rb-CTF for 50 ng/50 µL CDK/CycD1; 500 ng/50 µL Rb-CTF for 50 ng/50 µL CDK4/CycD1; 125 ng/50 µL Poly(ala, Glu, Lys, Tyr)6:2:5:1 for 25 ng/50 µL INS-R, 50 ng/50 µL PDGFR-beta, 100 ng/50 µL PDGFR-beta, 100 ng/50 µL FLT3, 150 ng/50 µL FLT3, 20 ng/50 µL MET, 50 ng/50 µL MET, 100 ng/50 µL MET; 250 ng/50 µL Casein for 200 ng/50 µL CK2-alpha1, 200 ng/50 µL PLK1; 1000 ng/50 µL Casein for 200 ng/50 µL PLK1, 200 ng/50 µL CK2-alpha1; 1000 ng/50 µLGSK3 (14–27) for 100 ng/50 µL AKT1; 125 ng/50 µL p53-CTM for 150 ng/50 µL CK2-alpha1, 200 ng/50 µLCK2-alpha1; 250 ng/50 µL MEK-KM for 20 ng/50 µL B-RAF-VE; autophosphorylation at ARK5, COT and SAK. After incubation (80 min, 30 °C) the reaction was stopped by adding 50 µL 2% (v/v) phosphoric acid to the reaction mixture. The microplate was washed twice with 200 µL 0.9% (v/v) saturated sodium chloride or water. The measured radioactivity, conditioned by the incorporation of [γ-^33P]-phosphate, is proportional to kinase activity. Furthermore, low control and high control were measured to determine the residual activity (%). As low controls, mixtures with substrate, but without enzyme were used to determine the unspecific binding of [γ-^33P]-phosphate to the well plate. Mixtures with enzyme, but without inhibitor were used as high controls to determine maximum enzyme activity. The IC50-values of the distinct compounds were calculated with Quattro Workflow V1.1.0.8 (Quattro Research GmbH, München, Germany). Dose response curves were generated by measurement of the residual activity of ten different inhibitor concentrations (0.1 mM, 30.0 µM, 10 µM, 3.0 µM, 1.0 µM, 0.3 µM, 0.1 µM, 30.0 nM, 10.0 nM and 3.0 nM). […]

VEGF-R3 = biological target: T2, VEGF-R3 (Homo sapiens, UniProt P35916); experiment: radiometric 33PanQinase protein kinase assay; format: biochemical; settings: for IC50: radiometric assay, 1 µM ATP; for remaining activity at 10 µM: 10 µM compound, residual kinase activity
T2 construct: host or cells: Sf9 (baculovirus)
Method: as §1, §2

Aurora-A = biological target: T3, Aurora-A (Homo sapiens, UniProt O14965); experiment: radiometric 33PanQinase protein kinase assay; format: biochemical; settings: for IC50: radiometric assay, 1 µM ATP; for remaining activity at 10 µM: 10 µM compound, residual kinase activity
T3 construct: host or cells: Sf9 (baculovirus)
T3 sequence (O14965 1-403): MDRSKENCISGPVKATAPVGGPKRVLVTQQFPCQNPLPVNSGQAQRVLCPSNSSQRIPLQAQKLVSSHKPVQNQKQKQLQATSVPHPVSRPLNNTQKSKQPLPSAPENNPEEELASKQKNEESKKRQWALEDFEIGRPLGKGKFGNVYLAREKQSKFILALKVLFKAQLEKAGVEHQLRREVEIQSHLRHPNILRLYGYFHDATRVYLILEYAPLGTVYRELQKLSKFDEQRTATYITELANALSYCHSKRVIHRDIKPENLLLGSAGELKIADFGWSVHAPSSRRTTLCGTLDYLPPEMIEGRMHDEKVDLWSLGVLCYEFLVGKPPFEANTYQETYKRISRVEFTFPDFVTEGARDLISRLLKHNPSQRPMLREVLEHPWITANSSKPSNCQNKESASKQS
Method: as §1, §2

Aurora-B = biological target: T4, Aurora-B (Homo sapiens, UniProt Q96GD4); experiment: radiometric 33PanQinase protein kinase assay; format: biochemical; settings: for IC50: radiometric assay, 1 µM ATP; for remaining activity at 10 µM: 10 µM compound, residual kinase activity
T4 construct: host or cells: Sf9 (baculovirus)
Method: as §1, §2

[1] = kinetic solubility by nephelometry; format: physicochemical; settings: phosphate buffer, 25 °C, pH 7.4, aqueous buffer, kinetic from dmso stock, phosphate buffer pH 7.4, 1% DMSO, mean of two measurements, range in brackets
Method: The kinetic solubility of test compounds was determined by nephelometry. Dilution series of test compounds in DMSO with eight to ten different concentrations were prepared. The dilutions were pipetted (2 µL) into the cavities of a 96 well plate (CorningTM UV-transparent flat-bottom microtiter plate; Corning Incorporated, Kennebunk, ME, USA). A phosphate buffer solution pH 7.4 (198 µL) was added, so that the DMSO concentration in the measured solutions was 1%. Three wells were filled with DMSO and phosphate buffer pH 7.4 (2:198) and measured as blank values. The 96 well plate prepared in this way was measured with the NEPHELOstar® Plus nephelometer (BMG Labtech GmbH, Ortenberg, Germany, software: Omega 5.11) at a temperature of 25 °C. Previously, the plate was shaken at 500 rpm for 10 s and the laser intensity was set to 80%. The beam focus was set to 2.50 mm. If the test substance is completely soluble, only a scattering close to the blank value is detected. As soon as a critical concentration is reached in which the kinetic solubility of the test compound is exceeded, solid particles precipitate. Undissolved particles in the sample scatter the laser beam. The intensity of the scattered light is determined, which is proportional to the number of particles in the solution. The blank values were determined and subtracted from the measured values of the test compounds. By measuring different concentrations of the test substances, different intensities of the scattered light, indicated as RNU (relative nephelometric units), were determined. Kick off curves were obtained by plotting concentrations against the RNU values. The point of intersection of the horizontal and of the ascending part of the kick-off curve indicated the kinetic solubility concentration.

T2 sequence (P35916 25-1363): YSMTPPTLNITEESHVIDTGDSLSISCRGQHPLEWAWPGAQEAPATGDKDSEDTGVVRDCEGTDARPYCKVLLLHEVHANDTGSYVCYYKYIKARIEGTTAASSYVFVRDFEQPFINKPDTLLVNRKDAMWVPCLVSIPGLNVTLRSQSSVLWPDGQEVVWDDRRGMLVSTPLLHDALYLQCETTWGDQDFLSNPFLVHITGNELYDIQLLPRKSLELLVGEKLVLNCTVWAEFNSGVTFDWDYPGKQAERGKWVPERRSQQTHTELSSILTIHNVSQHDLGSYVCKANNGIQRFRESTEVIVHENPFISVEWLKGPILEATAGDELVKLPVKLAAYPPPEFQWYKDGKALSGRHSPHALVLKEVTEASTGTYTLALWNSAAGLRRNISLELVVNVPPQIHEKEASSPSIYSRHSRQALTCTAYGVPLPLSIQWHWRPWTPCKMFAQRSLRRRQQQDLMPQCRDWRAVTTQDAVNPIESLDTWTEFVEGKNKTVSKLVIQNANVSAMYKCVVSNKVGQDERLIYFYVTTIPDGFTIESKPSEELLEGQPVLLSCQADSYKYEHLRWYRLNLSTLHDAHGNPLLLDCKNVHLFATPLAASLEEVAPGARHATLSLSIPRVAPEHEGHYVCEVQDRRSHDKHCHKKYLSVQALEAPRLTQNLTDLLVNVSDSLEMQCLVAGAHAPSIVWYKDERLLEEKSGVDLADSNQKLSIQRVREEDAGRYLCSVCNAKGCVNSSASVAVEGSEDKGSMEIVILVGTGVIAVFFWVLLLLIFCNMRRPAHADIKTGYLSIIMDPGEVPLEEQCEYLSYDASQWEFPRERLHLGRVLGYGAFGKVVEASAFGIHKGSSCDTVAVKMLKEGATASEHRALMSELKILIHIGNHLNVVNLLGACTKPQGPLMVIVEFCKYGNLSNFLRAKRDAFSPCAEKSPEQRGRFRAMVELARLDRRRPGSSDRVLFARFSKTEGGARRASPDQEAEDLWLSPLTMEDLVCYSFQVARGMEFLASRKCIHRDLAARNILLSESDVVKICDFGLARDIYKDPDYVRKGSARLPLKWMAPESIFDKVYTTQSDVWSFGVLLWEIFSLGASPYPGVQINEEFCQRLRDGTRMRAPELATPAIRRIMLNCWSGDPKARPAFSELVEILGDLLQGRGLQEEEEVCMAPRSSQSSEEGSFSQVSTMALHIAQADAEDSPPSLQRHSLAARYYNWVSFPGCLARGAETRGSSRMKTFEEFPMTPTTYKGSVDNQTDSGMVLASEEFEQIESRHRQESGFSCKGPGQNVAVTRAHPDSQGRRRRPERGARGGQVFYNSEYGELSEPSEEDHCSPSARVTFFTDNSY
T4 sequence (Q96GD4 whole entry): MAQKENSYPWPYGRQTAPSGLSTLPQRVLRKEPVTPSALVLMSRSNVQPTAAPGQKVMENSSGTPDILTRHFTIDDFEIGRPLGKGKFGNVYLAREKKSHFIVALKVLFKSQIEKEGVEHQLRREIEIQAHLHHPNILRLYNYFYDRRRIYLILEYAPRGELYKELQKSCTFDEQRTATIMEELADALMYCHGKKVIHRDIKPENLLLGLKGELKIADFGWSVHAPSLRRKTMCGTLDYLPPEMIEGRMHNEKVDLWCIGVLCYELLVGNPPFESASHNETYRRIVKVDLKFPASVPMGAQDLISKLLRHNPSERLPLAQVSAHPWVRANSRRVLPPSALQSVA
T1 sequence (P35968 20-1356): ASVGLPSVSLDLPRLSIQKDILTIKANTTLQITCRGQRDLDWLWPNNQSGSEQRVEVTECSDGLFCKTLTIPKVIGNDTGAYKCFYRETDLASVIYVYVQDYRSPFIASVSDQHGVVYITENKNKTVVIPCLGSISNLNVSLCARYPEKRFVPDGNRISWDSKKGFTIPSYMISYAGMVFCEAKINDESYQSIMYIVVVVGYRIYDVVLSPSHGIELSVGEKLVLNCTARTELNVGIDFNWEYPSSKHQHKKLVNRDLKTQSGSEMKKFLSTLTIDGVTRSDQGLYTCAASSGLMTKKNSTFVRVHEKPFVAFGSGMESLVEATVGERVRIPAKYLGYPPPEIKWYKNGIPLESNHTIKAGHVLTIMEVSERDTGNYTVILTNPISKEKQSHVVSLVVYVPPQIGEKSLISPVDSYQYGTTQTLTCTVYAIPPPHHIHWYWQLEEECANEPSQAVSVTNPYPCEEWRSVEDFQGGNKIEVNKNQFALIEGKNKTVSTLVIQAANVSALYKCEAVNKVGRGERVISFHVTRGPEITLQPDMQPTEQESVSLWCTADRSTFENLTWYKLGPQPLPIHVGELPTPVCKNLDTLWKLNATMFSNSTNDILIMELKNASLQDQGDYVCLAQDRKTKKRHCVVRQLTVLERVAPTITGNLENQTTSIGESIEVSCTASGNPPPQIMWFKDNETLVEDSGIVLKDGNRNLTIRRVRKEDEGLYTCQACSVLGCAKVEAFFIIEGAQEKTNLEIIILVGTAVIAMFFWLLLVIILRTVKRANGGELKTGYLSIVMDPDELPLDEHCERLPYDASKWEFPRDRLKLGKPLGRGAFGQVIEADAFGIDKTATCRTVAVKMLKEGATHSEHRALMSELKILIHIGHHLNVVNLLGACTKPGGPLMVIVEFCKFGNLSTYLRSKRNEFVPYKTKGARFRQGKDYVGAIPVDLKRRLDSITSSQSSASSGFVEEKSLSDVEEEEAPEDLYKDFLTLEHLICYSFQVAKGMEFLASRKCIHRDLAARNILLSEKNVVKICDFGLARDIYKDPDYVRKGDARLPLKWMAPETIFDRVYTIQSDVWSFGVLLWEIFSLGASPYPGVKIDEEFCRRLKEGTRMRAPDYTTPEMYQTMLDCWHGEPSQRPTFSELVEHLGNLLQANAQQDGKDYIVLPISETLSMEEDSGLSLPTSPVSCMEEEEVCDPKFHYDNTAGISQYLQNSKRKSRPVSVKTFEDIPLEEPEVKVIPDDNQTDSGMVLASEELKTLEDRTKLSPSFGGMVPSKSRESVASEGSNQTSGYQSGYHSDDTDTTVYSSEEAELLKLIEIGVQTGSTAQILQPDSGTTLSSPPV

Structure (SMILES)	IC50 (VEGF-R2)	IC50 (VEGF-R3)	IC50 (Aurora-A)	IC50 (Aurora-B)	remaining activity at 10 µM (VEGF-R2)	remaining activity at 10 µM (VEGF-R3)	remaining activity at 10 µM (Aurora-A)	remaining activity at 10 µM (Aurora-B)	solubility kinetic at 10 s [1]
Cc1ccc(Nc2nccc(-c3ccc4c(c3)CCCC(=O)N4)n2)cc1 [Compound 2b, 7-[2-(4-Toluidino)pyrimidin-4-yl]-1,3,4,5-tetrahydro-2H-1-benzazepin-2-one]	1.8 µM	4.3 µM	2.4 µM	16 µM					
COc1ccc(Nc2nccc(-c3ccc4c(c3)CCCC(=O)N4)n2)cc1 [Compound 2c, 7-[2-(4-Methoxyanilino)pyrimidin-4-yl]-1,3,4,5-tetrahydro-2H-1-benzazepin-2-one]	1.3 µM	2.5 µM	1.8 µM	18 µM					
CCOc1ccc(Nc2nccc(-c3ccc4c(c3)CCCC(=O)N4)n2)cc1 [Compound 2d, 7-[2-(4-Ethoxyanilino)pyrimidin-4-yl]-1,3,4,5-tetrahydro-2H-1-benzazepin-2-one]	2 µM	3 µM	1.5 µM	20 µM					
O=C1CCCc2cc(-c3ccnc(Nc4ccc(Cl)cc4)n3)ccc2N1 [Compound 2f, 7-[2-(4-Chloroanilino)pyrimidin-4-yl]-1,3,4,5-tetrahydro-2H-1-benzazepin-2-one]	11 µM	19 µM	9.4 µM	40 µM					
O=C1CCCc2cc(-c3ccnc(Nc4ccc(Br)cc4)n3)ccc2N1 [Compound 2g, 7-[2-(4-Bromoanilino)pyrimidin-4-yl]-1,3,4,5-tetrahydro-2H-1-benzazepin-2-one]	5.4 µM	4.1 µM	3.5 µM	18 µM					
O=C1CCCc2cc(-c3ccnc(Nc4ccc(I)cc4)n3)ccc2N1 [Compound 2h, 7-[2-(4-Iodoanilino)pyrimidin-4-yl]-1,3,4,5-tetrahydro-2H-1-benzazepin-2-one]	17 µM	6.2 µM	3.5 µM	52 µM					
O=C1CCCc2cc(-c3ccnc(Nc4ccc([N+](=O)[O-])cc4)n3)ccc2N1 [Compound 2i, 7-[2-(4-Nitroanilino)pyrimidin-4-yl]-1,3,4,5-tetrahydro-2H-1-benzazepin-2-one]	11 µM	35 µM	> 100 µM	> 100 µM					
O=C1CCCc2cc(-c3ccnc(Nc4ccccc4O)n3)ccc2N1 [Compound 2j, 7-[2-(2-Hydroxyanilino)pyrimidin-4-yl]-1,3,4,5-tetrahydro-2H-1-benzazepin-2-one]	8.4 µM	19 µM	> 100 µM	> 100 µM					
O=C1CCCc2cc(-c3ccnc(Nc4ccccc4Cl)n3)ccc2N1 [Compound 2k, 7-[2-(2-Chloroanilino)pyrimidin-4-yl]-1,3,4,5-tetrahydro-2H-1-benzazepin-2-one]					74%	72%	74%	87%	
O=C1CCCc2cc(-c3ccnc(Nc4ccccc4Br)n3)ccc2N1 [Compound 2l, 7-[2-(2-Bromoanilino)pyrimidin-4-yl]-1,3,4,5-tetrahydro-2H-1-benzazepin-2-one]					78%	64%	73%	116%	

Now from value to compound:

IC50 (VEGF-R2)	IC50 (VEGF-R3)	IC50 (Aurora-A)	IC50 (Aurora-B)	remaining activity at 10 µM (VEGF-R2)	remaining activity at 10 µM (VEGF-R3)	remaining activity at 10 µM (Aurora-A)	remaining activity at 10 µM (Aurora-B)	solubility kinetic at 10 s [1]	Structure (SMILES)
		1.8 µM						25.3 µM (≈ 13.2 µg/mL)	CN1CCN(CCCOc2cccc(Nc3nccc(-c4ccc5c(c4)CCCC(=O)N5)n3)c2)S1(=O)=O [Compound 14a, 7-{2-[(3-(3-(5-Methyl-1,1-dioxido-1,2,5-thiadiazolidin-2-yl)propoxy)phenyl)amino]pyrimidin-4-yl}-1,3,4,5-tetrahydro-2H-benzo[b]azepin-2-one]
		3 µM						19.6 µM (≈ 10.8 µg/mL)	O=C1CCCc2cc(-c3ccnc(Nc4cccc(OCCCNS(=O)(=O)N5CCOCC5)c4)n3)ccc2N1 [Compound 14b, N-{3-[3-((4-(2-Oxo-2,3,4,5-tetrahydro-1H-benzo[b]azepin-7-yl)pyrimidin-2-yl)amino)phenoxy]-propyl}morpholine-4-sulfonamide]
		4.5 µM						25.3 µM (≈ 13.6 µg/mL)	O=C1CCCc2cc(-c3ccnc(Nc4cccc(OCCCNS(=O)(=O)N5CCCC5)c4)n3)ccc2N1 [Compound 14c, N-{3-[3-((4-(2-Oxo-2,3,4,5-tetrahydro-1H-benzo[b]azepin-7-yl)pyrimidin-2-yl)amino)phenoxy]propyl}-pyrrolidine-1-sulfonamide]
		1.5 µM						25.2 µM (≈ 13.2 µg/mL)	O=C1CCCc2cc(-c3ccnc(Nc4cccc(OCCCNS(=O)(=O)N5CCC5)c4)n3)ccc2N1 [Compound 14d, N-{3-[3-((4-(2-Oxo-2,3,4,5-tetrahydro-1H-benzo[b]azepin-7-yl)pyrimidin-2-yl)amino)phenoxy]propyl}-azetidine-1-sulfonamide]
